Patent US7354922B2, “Bridged ring NK1 antagonists” (Schering Corporation, priority 2004, dated 2008)

Molecular target: NK1 receptor (Homo sapiens, UniProt P25103)
Experiment: NK1 receptor binding (inhibition of Substance P binding, Ki by Chang-Prusoff equation)
Text: The in vitro and in vivo NK1, NK2 and NK3 activities of the compounds of Formula (I) can be determined by various procedures known in the art, such as a test for their ability to inhibit the activity of the NK1 agonist Substance P. The percent inhibition of neurokinin agonist activity is the difference between the percent of maximum specific binding (“MSB”) and 100%. The percent of MSB is defined by the following equation, wherein “dpm” represents “disintegrations per minute”:
[formula] The concentration at which the compound produces 50% inhibition of binding is then used to determine an inhibition constant (“Ki”) using the Chang-Prusoff equation.
The activities (potencies) for the compounds of the invention are determined by measuring their Ki values. […] Even more preferred are compounds having average Ki values of from 0.05 nM to about 5 nM for the NK1 receptor. Especially preferred compounds have NK1 average Ki values of from 0.05 nM to about 1 nM. Even more especially preferred compounds have NK1 average Ki values of from 0.05 nM to about 0.2 nM.

Chain of NK1 receptor (P25103 whole entry, species assumed): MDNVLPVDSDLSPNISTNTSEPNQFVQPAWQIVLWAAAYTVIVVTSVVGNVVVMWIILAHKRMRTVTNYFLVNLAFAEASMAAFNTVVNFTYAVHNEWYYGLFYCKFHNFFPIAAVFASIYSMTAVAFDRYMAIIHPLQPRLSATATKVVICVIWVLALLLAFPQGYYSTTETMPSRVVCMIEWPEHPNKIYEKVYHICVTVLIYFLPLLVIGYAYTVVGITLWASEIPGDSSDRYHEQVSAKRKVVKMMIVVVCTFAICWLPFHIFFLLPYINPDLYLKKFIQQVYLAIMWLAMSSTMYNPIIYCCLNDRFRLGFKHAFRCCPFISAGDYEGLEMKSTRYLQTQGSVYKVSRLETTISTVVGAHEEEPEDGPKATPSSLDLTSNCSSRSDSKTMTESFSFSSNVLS

| Structure (SMILES) | Ki [pM] |
| --- | --- |
| C[C@@H](OC[C@@]1(c2ccccc2)CC[C@]2(CNS(C)(=O)=O)CN1CC(=O)N2)c1cc(C(F)(F)F)cc(C(F)(F)F)c1 [Example 38] | 120 |
| C[C@@H](OC[C@@]1(c2ccccc2)CC[C@@H]2CN1CCN2C(N)=O)c1cc(C(F)(F)F)cc(C(F)(F)F)c1 [Example 5] | 100 |
| C[C@@H](OC[C@@]1(c2ccccc2)CC[C@]2(CNC3CC3)CN1CC(=O)N2)c1cc(C(F)(F)F)cc(C(F)(F)F)c1 [Example 32] | 110 |
| C[C@@H](OC[C@@]1(c2ccccc2)CC[C@]2(CC(N)=O)CN1CC(=O)N2)c1cc(C(F)(F)F)cc(C(F)(F)F)c1 [Example 16] | 160 |
| C[C@@H](OC[C@@]1(c2ccccc2)CC[C@]2(Cn3cnnn3)CN1CC(=O)N2)c1cc(C(F)(F)F)cc(C(F)(F)F)c1 [Example 20] | 150 |
| C[C@@H](OC[C@@]1(c2ccccc2)CC[C@]2(CO)CN1CCN2)c1cc(C(F)(F)F)cc(C(F)(F)F)c1 [Example 57] | 120 |
| C[C@@H](OC[C@@]1(c2ccccc2)CC[C@]2(CN3CCCCC3=O)CN1CC(=O)N2)c1cc(C(F)(F)F)cc(C(F)(F)F)c1 [Example 30] | 110 |
| C[C@@H](OC[C@@]1(c2ccccc2)CC[C@]2(CO)CN1CC(=O)N2)c1cc(C(F)(F)F)cc(C(F)(F)F)c1 [Example 3a] | 150 |
| C[C@@H](OC[C@@]1(c2ccccc2)CC[C@@]23COCCN2C(=O)CN1C3)c1cc(C(F)(F)F)cc(C(F)(F)F)c1 [Example 51] | 120 |
| CC(C)=NOC[C@]12CC[C@@](CO[C@H](C)c3cc(C(F)(F)F)cc(C(F)(F)F)c3)(c3ccccc3)N(CC(=O)N1)C2 [Example 33] | 130 |
| C[C@@H](OC[C@@]1(c2ccccc2)CC[C@@H]2CN1CCN2)c1cc(C(F)(F)F)cc(C(F)(F)F)c1 [Example 4] | 110 |
| C[C@@H](OC[C@@]1(c2ccccc2)CC[C@@]2(NC(N)=O)CCCN1C2)c1cc(C(F)(F)F)cc(C(F)(F)F)c1 [Example 47] | 120 |
| C[C@@H](OC[C@@]1(c2ccccc2)CC[C@]2(CC#N)CN1CC(=O)N2)c1cc(C(F)(F)F)cc(C(F)(F)F)c1 [Example 8] | 120 |
| COC[C@]12CC[C@@](CO[C@H](C)c3cc(C(F)(F)F)cc(C(F)(F)F)c3)(c3ccccc3)N(CC(=O)N1)C2 [Example 12] | 130 |
| C[C@@H](OC[C@@]1(c2ccccc2)CC[C@]2(COC(N)=O)CN1CC(=O)N2)c1cc(C(F)(F)F)cc(C(F)(F)F)c1 [Example 15] | 90 |
| CSC[C@]12CC[C@@](CO[C@H](C)c3cc(C(F)(F)F)cc(C(F)(F)F)c3)(c3ccccc3)N(CC(=O)N1)C2 [Example 34] | 70 |
| C[C@@H](OC[C@@]1(c2ccccc2)CC[C@]2(CO)CN1CC(=O)O2)c1cc(C(F)(F)F)cc(C(F)(F)F)c1 [Example 49] | 160 |
